# Source: US4797399A, “Piperazine compounds and antithrombotic pharmaceutical composition comprising the same” (Fujisawa Pharmaceutical Co., Ltd., priority 1986, dated 1989)
# Where two headings read alike, the source gives them in different places.
# Legend:
# [1] = test system: platelet aggregation (ADP); assay: Platelet aggregation in vitro, ADP-induced (rabbit platelet rich plasma); type: cell-based; settings: Oryctolagus cuniculus
# Procedure: (§1) Platelet rich plasma (PRP) which contains 6-7×10^8 platelets/ml was prepared from rabbit blood. To the 200 μl of PRP, 5 μl of calcium chloride (1 mM) and 50 μl of 25 mM Tris-acetate solution (pH 7.4) containing 120 mM NaCl or test compound were added successively, and then stirred for 2 min. at 37° C. […] Aggregation was measured by using an aggregometer. (NKK HEMA-TRACER 1).
# [2] = test system: platelet aggregation (collagen); assay: Platelet aggregation in vitro, collagen-induced (rabbit platelet rich plasma); type: cell-based; settings: Oryctolagus cuniculus
# Procedure: as §1
# [3] = test system: platelet aggregation (collagen); assay: Platelet aggregation ex vivo, collagen-induced, after oral administration to rats; type: in vivo, Sprague-Dawley rats; settings: 1 hour after dosing, collagen 5.0 μg/ml
# Procedure: Male Sprague-Dawley rats weighing about 250 g were used after overnight fasting. One hour after oral administration of test compound or vehicle of test compound (control), blood was collected into a tube containing 0.1 vol. of 3.8% sodium citrate. To the 0.45 ml of blood, 0.05 ml of collagen (final concentration 5.0 μg/ml) was added and then incubated for 5 min. at 37° C. under shaking.
# The reaction was terminated by addition of 1 ml of 10 mM phosphate buffered saline (pH 7.4) containing 11.5 mM EDTA and 1% formalin. The reaction mixture was centrifuged at 70×g for 5 min. and platelet count of upper phase was measured by Technicon Auto Analizer.
# Platelet aggregation was calculated according to the following formula: [formula] A. Platelet count after addition of vehicle of collagen B. Platelet count after addition of collagen
# Inhibition of the test compound was calculated according to the following formula; [formula] C. Platelet aggregation (%) of control D. Platelet aggregation (%) of Test compound
# carrageenin foot edema = assay: Carrageenin foot edema; type: in vivo, Sprague-Dawley rats; settings: 320 mg/kg oral, 60 min before phlogogen, edema at 3 hours; * P < 0.05
# Procedure: Male Sprague-Dawley rats weighing about 180 g were used in groups of five. Paw edema was induced by subplantar injection of 1% carrageenin (0.1 ml/rat) into the right hind paw in carrageenin foot edema. The test compound was suspended in methylcellulose and administered orally 60 minutes before phlogogen. Paw volume was measured with plethysmometer (Ugo Basil Co., Ltd.) by water displacement immersing the paw to the lateral malleolus. The difference of paw volume before and 3 hours after the phlogogen was designated as edema volume. The data analyzed statistically by student's t-test.
# systemic anaphylaxis = assay: Systemic anaphylaxis (passive sensitization with rabbit anti-ovalbumin serum, ovalbumin aerosol); type: in vivo, Hartley guinea pigs; settings: 30 min before antigen aerosol
# Procedure: Male Hartley guinea pigs (300-400 g, n=5) were passively sensitized with i.v. injection of rabbit anti-ovalbumin serum. 24 Hours later, test compound was administered orally. 30 Min. after administration of test compound, sensitized animals were placed for 2 min. in a chamber filled with antigen aerosol (ovalbumin) by a conventional nebulizer. Survived animals were regarded as being protected from systemic anaphylaxis.
# [4] = test system: acetic acid-induced writhing; assay: Acetic acid-induced writhing syndrome; type: in vivo, Scl:ddy strain mice; settings: 32 mg/kg oral, 60 min before 0.6% acetic acid i.p., 3-13 min count; * P < 0.01
# Procedure: Male Scl:ddy strain mice aged 6 weeks were used in groups of 10. The test compound was suspended in methylcellulose and administered orally. After 60 min., 20 ml/kg of 0.6% acetic acid solution was administered i.p. and writhing episodes between 3 and 13 min. after acetic acid injection were counted. The data was analyzed statistically by student's t-test.
Structure (SMILES),"IC50 ([1]; pH 7.4, read-out: ID50 ADP (dose required to inhibit platelet aggregation by 50%)) [µM]","IC50 ([2]; pH 7.4, read-out: ID50 Collagen (dose required to inhibit platelet aggregation by 50%)) [µM]","IC50 ([1]; inducer ADP (2.5 μM), rabbit PRP, pH 7.4, 37° C, read-out: ID50 ADP (dose required to inhibit platelet aggregation by 50%)) [µM]","IC50 ([2]; inducer collagen (2.5 μg/ml), rabbit PRP, pH 7.4, 37° C, read-out: ID50 Collagen (dose required to inhibit platelet aggregation by 50%)) [µM]",Inhibition (%) of platelet aggregation ex vivo ([3]; 10 mg/kg oral) [%],Inhibition (%) of platelet aggregation ex vivo ([3]; 32 mg/kg oral) [%],Inhibition (%) of platelet aggregation ex vivo ([3]; 100 mg/kg oral) [%],Inhibition (%) of carrageenin foot edema (carrageenin foot edema) [%],Survival (%) (systemic anaphylaxis; 10 mg/kg oral),Survival (%) (systemic anaphylaxis; 100 mg/kg oral),Inhibition (%) of acetic acid-induced writhing [4] [%]
"CC(=O)Oc1ccccc1C(=O)O [Aspirin, reference compound]",3200,31,–,–,–,–,–,–,–,–,–
"Cl.NN1CCN(C(=O)Cn2c(=O)sc3ccc(Cl)cc32)CC1 [Example 5, 5-chloro-3-[(4-amino-1-piperazinyl)carbonylmethyl]-2-benzothiazolinone hydrochloride]",–,–,14,14,2,67,100,40.0,20,100,32.8
